Legend:
α1d-AR = biological target: T1, α1d-AR (Homo sapiens, UniProt P25100); assay: α1-Adrenergic receptor radio-ligand (125I-HEAT) binding assay, α1d subtype; settings: COS-7 cell membranes, 125I-HEAT; read-out: Receptor Binding, Ki α1d-AR
T1 construct: expressed in transfected cells; host or cells: COS-7
T1 sequence (P25100 1-572): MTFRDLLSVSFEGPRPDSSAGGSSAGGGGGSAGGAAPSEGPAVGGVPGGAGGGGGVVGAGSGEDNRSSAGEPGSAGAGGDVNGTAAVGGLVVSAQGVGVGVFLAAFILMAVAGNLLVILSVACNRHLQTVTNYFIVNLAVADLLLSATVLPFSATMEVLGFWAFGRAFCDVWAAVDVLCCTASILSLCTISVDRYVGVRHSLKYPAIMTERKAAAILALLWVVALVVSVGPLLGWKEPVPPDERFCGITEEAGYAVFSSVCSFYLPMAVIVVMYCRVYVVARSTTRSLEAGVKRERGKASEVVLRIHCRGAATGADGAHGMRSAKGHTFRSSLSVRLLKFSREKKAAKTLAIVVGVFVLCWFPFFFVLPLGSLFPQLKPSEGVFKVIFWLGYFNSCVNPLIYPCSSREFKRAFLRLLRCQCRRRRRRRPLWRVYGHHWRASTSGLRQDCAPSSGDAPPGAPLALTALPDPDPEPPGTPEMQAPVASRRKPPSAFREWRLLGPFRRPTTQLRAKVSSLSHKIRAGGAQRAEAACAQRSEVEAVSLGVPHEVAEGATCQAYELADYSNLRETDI

MAP = assay: Phenylephrine-induced MAP in a conscious canine model; format: in vivo; settings: conscious dog
Method: In-Vivo Evaluation of α1-Adrenergic Antagonists on IUP and MAP in a Conscious Canine Model
An anesthetized dog was fitted with a balloon catheter for the measurement of changes in prostatic IUP and with a number of implanted pressure transducers and telemetry transmitters for measuring MAP.
The pressor effects of challenge doses […] of the α-adrenergic agonist phenylephrine upon IUP and MAP were measured before and at various time points after a single dose (p.o.) of an α-adrenergic antagonist test compound (Compound 69) of the present invention.
Each treatment group was dosed with a test compound (0.1, 0.3, 1.0 and 3.0 mg/kg) in four separate experiments. The first challenge dose of phenylephrine for each treatment group was administered at the time of the test compound dose (time 0). The value for the first challenge dose represents an average of up to three challenge doses administered prior to time 0.
Subsequent challenge doses for all treatment groups were administered at 30 min. then one hour and two hours after time 0.
The final challenge doses for the 0.1 and 0.3 mg/kg groups were administered at four and six hours after time 0. The final challenge doses for the 1.0 mg/kg group were administered at four, six and eight hours after time 0. The final challenge doses for the 3.0 mg/kg group were administered at four, six, 12 and 24 hours after time 0.
A pressure transducer and telemetry transmitter (DSI TA11PA-D70 35 cm, Data Sciences International, St. Paul, Minn.) were implanted according to directions in “PA Device Surgical Manual” provided by the manufacturer.
A test compound was administered via the cephalic or saphenous vein using an appropriately sized IV catheter (Surflo, Terumo Medical Corporation or equivalent).
Prior to test compound administration, IUP and MAP responses to an individualized dose of phenylephrine (either 10 or 15 μg/kg IV, depending on the individual animal's response) was repeated 2 to 3 times to establish a baseline response. After test compound administration, the individualized phenylephrine dose was administered to each animal at predetermined intervals over a period of up to 24 hours.
Data for phenylephrine-induced changes in IUP and MAP were tabulated for each treatment group and each experiment. A mean value and standard deviation for the phenylephrine-induced changes to the effect of a test compound on IUP and MAP at each dose was calculated and tabulated for each treatment group over the length of the study.

Q: With `COc1ccc(S(=O)(=O)N[C@H]2CC[C@@H](N3CCN(c4ccccc4OCC(F)(F)F)CC3)CC2)cc1OC` [Cpd 69, 3,4-Dimethoxy-N-cis-(4-{4-[2-(2,2,2-trifluoro-ethoxy)-phenyl]-piperazin-1-yl}-cyclohexyl)-benzenesulfonamide] as the compound, how does the Ki (α1d-AR) read?
A: Its Ki is 0.92 nM.

Q: What about the “MAP, normalized % of baseline (mean)” value (MAP; 0.1 mg/kg p.o., 0 hrs (baseline)) of the same compound?
A: The value was 100%.

Q: And the “MAP, normalized % of baseline (mean)” value (MAP; 0.1 mg/kg p.o., 0.5 hrs after dose)?
A: The value was 87.7%.

Q: What about the “MAP, normalized % of baseline (mean)” value (MAP; 0.1 mg/kg p.o., 1 hrs after dose) of the same compound?
A: Its value is 93.3%.

Q: What about the “MAP, normalized % of baseline (mean)” value (MAP; 0.1 mg/kg p.o., 2 hrs after dose) of the same compound?
A: Its value is 80.1%.

Q: And the “MAP, normalized % of baseline (mean)” value (MAP; 0.1 mg/kg p.o., 4 hrs after dose)?
A: Its value is 89.7%.

Q: And the “MAP, normalized % of baseline (mean)” value (MAP; 0.1 mg/kg p.o., 6 hrs after dose)?
A: Its value is 91.0%.

Q: What about the “MAP, normalized % of baseline (mean)” value (MAP; 0.3 mg/kg p.o., 0 hrs (baseline)) of the same compound?
A: The value was 100%.

Q: What about the “MAP, normalized % of baseline (mean)” value (MAP; 0.3 mg/kg p.o., 0.5 hrs after dose) of the same compound?
A: The value was 64.9%.

Q: And the “MAP, normalized % of baseline (mean)” value (MAP; 0.3 mg/kg p.o., 1 hrs after dose)?
A: The value was 59.3%.

Q: And the “MAP, normalized % of baseline (mean)” value (MAP; 0.3 mg/kg p.o., 2 hrs after dose)?
A: The value was 67.7%.

Q: And the “MAP, normalized % of baseline (mean)” value (MAP; 0.3 mg/kg p.o., 4 hrs after dose)?
A: Its value is 85.6%.

Q: What about the “MAP, normalized % of baseline (mean)” value (MAP; 0.3 mg/kg p.o., 6 hrs after dose) of the same compound?
A: The value was 103.9%.

Q: What about the “MAP, normalized % of baseline (mean)” value (MAP; 1.0 mg/kg p.o., 0 hrs (baseline)) of the same compound?
A: The value was 100%.

Q: And the “MAP, normalized % of baseline (mean)” value (MAP; 1.0 mg/kg p.o., 0.5 hrs after dose)?
A: Its value is 47.3%.

Q: What about the “MAP, normalized % of baseline (mean)” value (MAP; 1.0 mg/kg p.o., 1 hrs after dose) of the same compound?
A: Its value is 37.2%.

Q: And the “MAP, normalized % of baseline (mean)” value (MAP; 1.0 mg/kg p.o., 2 hrs after dose)?
A: The value was 52.8%.

Q: And the “MAP, normalized % of baseline (mean)” value (MAP; 1.0 mg/kg p.o., 4 hrs after dose)?
A: Its value is 61.3%.

Q: What about the “MAP, normalized % of baseline (mean)” value (MAP; 1.0 mg/kg p.o., 6 hrs after dose) of the same compound?
A: The value was 76.6%.

Q: And the “MAP, normalized % of baseline (mean)” value (MAP; 1.0 mg/kg p.o., 8 hrs after dose)?
A: Its value is 87.8%.

Q: And the “MAP, normalized % of baseline (mean)” value (MAP; 3.0 mg/kg p.o., 0 hrs (baseline))?
A: Its value is 100%.

Q: What about the “MAP, normalized % of baseline (mean)” value (MAP; 3.0 mg/kg p.o., 0.5 hrs after dose) of the same compound?
A: The value was 43.4%.

Q: What about the “MAP, normalized % of baseline (mean)” value (MAP; 3.0 mg/kg p.o., 1 hrs after dose) of the same compound?
A: Its value is 19.7%.

Q: What about the “MAP, normalized % of baseline (mean)” value (MAP; 3.0 mg/kg p.o., 2 hrs after dose) of the same compound?
A: The value was 21.7%.

Q: And the “MAP, normalized % of baseline (mean)” value (MAP; 3.0 mg/kg p.o., 4 hrs after dose)?
A: Its value is 39.8%.

Q: And the “MAP, normalized % of baseline (mean)” value (MAP; 3.0 mg/kg p.o., 6 hrs after dose)?
A: Its value is 50.2%.

Q: And the “MAP, normalized % of baseline (mean)” value (MAP; 3.0 mg/kg p.o., 12 hrs after dose)?
A: Its value is 80.2%.

Q: And the “MAP, normalized % of baseline (mean)” value (MAP; 3.0 mg/kg p.o., 24 hrs after dose)?
A: The value was 95.1%.

Source: patent publication US20060173015A1, “Cyclohexyldiamines as selective alpha 1a/1d adrenoreceptor antagonists for the treatment of benign prostatic hypertrophy and lower urinary tract symptoms” (priority 2004, published 2006)
